From patent publication US20240092800A1, “USP13 INHIBITORS AND METHODS OF USE THEREOF” (GEORGETOWN UNIVERSITY, priority 2021, published 2024)
pIC50: −log10 of the molar value.

Tests used:
[1] = tested on: tyrosine hydroxylase (TH); experiment: Tyrosine hydroxylase staining in striatum of TgA53T mice; format: in vivo, mouse; settings: 40 mg/Kg I.P. daily for 7 days, vs DMSO
Method: Immunohistology. Animals were deeply anesthetized with a mixture of xylazine and ketamine (1:8), washed with normal saline for 1 min and then perfused with 4% paraformaldehyde (PFA) for 15-20 min. Brains were quickly dissected out and immediately stored in 4% PFA for 24 h at 4° C. and then transferred to 30% sucrose at 4° C. for 48 h. Brains were cut using a cryostat microtome into 20 μm thick coronal sections and stored at −20° C.
Immunohistochemistry was performed on the 20 μm thick brain sections for evaluation of ubiquitination of alpha-synuclein. The antibodies used were human alpha-synuclein monoclonal antibody (Thermo Fisher, AHB0261, Rockford, IL, USA) and ubiquitin polyclonal antibody (Thermo Fisher, PA3-16717, Rockford, IL, USA). The optic densitometry of co-localization of ubiquitin with alpha-synuclein was measured using Image J. Tyrosine hydroxylase (TH) is the limiting enzyme in DA synthesis, so probing for TH+ neurons will help to evaluate the status of DA producing neurons in the SN and their terminals in the striatum. We performed fluorescent staining of TH+ in striatum and conducted optic densitometry measurement of striatal DA terminals. Nuclear staining with 4,6-diamidino-2-phenylindole was performed according to manufacturer's protocols (Life Technologies, Rockford, IL, USA).

human alpha-synuclein = experiment: Alpha-synuclein levels in TgA53T mice (WB, ELISA, DAB staining); format: in vivo, mouse; settings: 10 mg/kg or 40 mg/kg I.P. daily for 7 days, vs DMSO
human USP13 = target: T1, human USP13 (Homo sapiens, UniProt Q92995); experiment: USP13 activity via ELISA in SHSY5Y cells; format: cell-based
T1 construct: USP13 activity via ELISA in human SHSY5Y neuroblastoma cells; endogenous in cells; host or cells: human SH-SY5Y neuroblastoma cells (transiently transfected with human wild-type alpha-synuclein, not with USP13)
T1 sequence (Q92995 1-863): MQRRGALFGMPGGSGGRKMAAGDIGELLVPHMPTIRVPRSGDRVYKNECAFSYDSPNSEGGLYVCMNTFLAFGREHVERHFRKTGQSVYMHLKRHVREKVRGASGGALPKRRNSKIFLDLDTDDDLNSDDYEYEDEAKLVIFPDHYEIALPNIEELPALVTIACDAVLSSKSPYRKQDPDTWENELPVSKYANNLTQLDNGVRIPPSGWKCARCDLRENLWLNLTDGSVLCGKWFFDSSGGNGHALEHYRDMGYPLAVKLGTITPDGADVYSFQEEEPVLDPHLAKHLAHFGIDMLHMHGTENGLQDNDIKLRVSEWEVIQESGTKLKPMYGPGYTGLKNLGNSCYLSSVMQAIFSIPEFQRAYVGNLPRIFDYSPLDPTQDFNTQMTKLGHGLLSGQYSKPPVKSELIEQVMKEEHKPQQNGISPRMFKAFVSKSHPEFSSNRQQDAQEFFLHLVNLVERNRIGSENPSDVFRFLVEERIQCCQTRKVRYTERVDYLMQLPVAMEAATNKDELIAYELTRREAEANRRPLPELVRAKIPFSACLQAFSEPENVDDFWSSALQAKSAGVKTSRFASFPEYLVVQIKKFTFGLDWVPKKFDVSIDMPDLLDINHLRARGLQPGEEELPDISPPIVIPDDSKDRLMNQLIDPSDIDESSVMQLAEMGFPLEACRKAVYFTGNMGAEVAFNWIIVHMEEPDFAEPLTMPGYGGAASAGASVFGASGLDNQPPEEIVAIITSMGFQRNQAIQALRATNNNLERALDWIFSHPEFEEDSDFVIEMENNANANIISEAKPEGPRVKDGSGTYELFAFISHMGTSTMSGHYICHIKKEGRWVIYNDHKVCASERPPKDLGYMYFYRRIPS
Method: Cell lines, transfection, and treatment.
(§1) A total of 25 μL soluble protein was incubated overnight at 4° C. with 25 μL of a mixed bead solution. After washing, samples were incubated with 25 μL detection antibody solution for 1.5 hours at room temperature. Streptavidin-phycoerythrin (25 μL) was added to each well containing the 25 μL of detection antibody solution. Samples were then washed and suspended in 100 μL of sheath fluid. Samples were then run on MAGPIX with Xponent software. The median fluorescent intensity (MFI) data were analyzed using a 5-parameter logistic or spline curve-fitting method for calculating analyte concentrations in samples. Specific alpha-synuclein ELISAs were performed on tissue soluble extracts from midbrain lysates in 1XSTEN buffer. The ELISA for USP13 (MyBioSource, Cat # MBS9335287), Human alpha-synuclein (Biolegend, Cat #844101) and specific p-Tau ser396 (Invitrogen, KHB7031) were performed on cell or brain tissue extracts as described above according to manufacturers' protocol.
Statistical and Data Analysis. All statistical analyses were performed using GraphPad Prism version 5.0 (GraphPad software, Inc, San Diego, CA, USA). Two-tailed student's t-test was used in comparison of means of two groups. Ordinary one-way analysis of variance (ANOVA) followed by Newman-Keuls or Dunnett comparison post hoc tests were used in comparison of means of multiple groups. Asterisks denote actual p-value significances (*<0.05, **<0.01, ***<0.001 and ****<0.0001), and N is the number of animals or the number of independent experiments (cell culture) per group. Unless otherwise indicated, data are expressed as Mean±SD. IC50 to USP13 levels was also estimated using GraphPad Prism version 5.0 (GraphPad software, Inc, San Diego, CA, USA).

[2] = tested on: human SHSY5Y neuroblastoma cells; experiment: Cell viability by MTT and LDH assays; settings: 5 hours, up to 1 mM concentration
Method: Human SHSY-5Y neuroblastoma cells were cultured in Dulbecco's Modified Eagle's Medium (DMEM) (ThermoFisher Scientific; Waltham, MA) with 10% Fetal Bovine Serum (FBS) (ThermoFisher) and 1% Penicillin-Streptomycin (PenStrep, ThermoFisher) and incubated at 37° C. under atmospheric oxygen concentrations (21%) with 5% CO2. SHSY-5Y cells were cultured in DMEM with Ham's F12 (1:1) (ThermoFisher) with 20% FBS, 1% PenStrep. Cells were plated at a density tailored to reach 70-80% confluence at the beginning of every experiment. SH-SY5Y cells were transiently transfected for 24 hours with human wild-type α-synuclein using Fugene HD transfection reagent (Promega; Madison, WI) before fresh culture media and drug were added.
Cell viability was determined via lactate dehydrogenase assay on culture media, (ThermoFisher) and MTT assay on plated cells (ThermoFisher).

murine tau = experiment: p-Tau ser396 ELISA in TgA53T mice; format: in vivo, mouse; settings: 10 mg/Kg or 40 mg/Kg I.P. daily for 7 days
Method: as §1

SMILES: Fc1ccc2nccc(OCc3ccccc3)c2c1 [4-(Benzyloxy)-6-fluoroquinoline]
- staining of tyrosine hydroxylase (TH) [1]: did not show any noticeable effects
- human alpha-synuclein in midbrain lysates by WB (human alpha-synuclein): significantly reduced
- pIC50 (human USP13; SHSY5Y cell line, estimated with GraphPad Prism, read-out: IC50 to inhibit USP13 activity): 7.11
- USP13 activity via ELISA (human USP13; SHSY5Y cells, 5 hours, concentration range of 1 nM-1 mM): significantly reduce the activity of human USP13
- cell death in two viability assays (MTT and LDH) [2]: do not cause cell death
- murine tau levels (ptau396 ELISA) (murine tau): no effect
